Patent US10638756B2, “Molecules having pesticidal utility, and intermediates, compositions, and processes, related thereto” (Dow AgroSciences LLC, priority 2017, dated 2020)

Assays:
[1] = test system: Cabbage Looper (Trichoplusia ni); experiment: Bioassay on Cabbage Looper (CL), 128-well diet tray assay; format: in vivo; settings: 168 h, 50 μg/cm^2 on artificial diet, second instar larvae, five to seven days, read-out: CL % Control (or Mortality) rating
Experimental: (§1) Certain molecules disclosed in this document were tested against BAW and CL using procedures described in the following examples. In the reporting of the results, the “BAW & CL Rating Table” was used (See Table Section).
Bioassays on CL were conducted using a 128-well diet tray assay. One to five second instar CL larvae were placed in each well (3 mL) of the diet tray that had been previously filled with 1 mL of artificial diet to which 50 μg/cm^2 of the test molecule (dissolved in 50 μL of 90:10 acetone-water mixture) had been applied (to each of eight wells) and then allowed to dry. Trays were covered with a clear self-adhesive cover, vented to allow gas exchange, and held at 25° C., 14:10 light-dark for five to seven days. Percent mortality was recorded for the larvae in each well; activity in the eight wells was then averaged. The results are indicated in the table entitled “Table ABC: Biological Results” (See Table Section).

[2] = test system: Beet Armyworm (Spodoptera exigua); experiment: Bioassay on Beet Armyworm (BAW), 128-well diet tray assay; format: in vivo; settings: Spodoptera exigua, 168 h; 50 μg/cm^2 on artificial diet, second instar larvae, five to seven days; read-out: BAW % Control (or Mortality) rating
Experimental: as §1
Bioassays on BAW were conducted using a 128-well diet tray assay. […] Trays were covered with a clear self-adhesive cover, vented to allow gas exchange, and held at 25° C., 14:10 light-dark for five to seven days. Percent mortality was recorded for the larvae in each well; activity in the eight wells was then averaged. The results are indicated in the table entitled “Table ABC: Biological Results” (See Table Section).

O=C(NNc1ccc(Cl)cn1)c1ccc(/C(F)=C/C(c2cc(Cl)c(Cl)c(Cl)c2)C(F)(F)F)cc1C(F)(F)F (stereo not shown) [F93, (Z)—N′-(5-Chloropyridin-2-yl)-4-(1,4,4,4-tetrafluoro-3-(3,4,5-trichlorophenyl)but-1-en-1-yl)-2-(trifluoromethyl)benzohydrazide]
mortality at 50 µg/cm2 [1]: 50 to 100%
mortality at 50 µg/cm2 [2]: 50 to 100%

COc1cnc(N(C)NC(=O)c2ccc(/C(F)=C/C(c3cc(Cl)c(Cl)c(Cl)c3)C(F)(F)F)cc2C(F)(F)F)nc1 (stereo not shown) [F12, (Z)—N′-(5-Methoxypyrimidin-2-yl)-N′-methyl-4-(1,4,4,4-tetrafluoro-3-(3,4,5-trichlorophenyl)but-1-en-1-yl)-2-(trifluoromethyl)benzohydrazide]
mortality at 50 µg/cm2 [1]: 50 to 100%
mortality at 50 µg/cm2 [2]: 50 to 100%

Cc1cc(/C(F)=C/C(c2cc(Cl)c(Cl)c(Cl)c2)C(F)(F)F)ccc1C(=O)NN(C)c1ncccn1 (stereo not shown) [F55, (Z)—N′,2-Dimethyl-N′-(pyrimidin-2-yl)-4-(1,4,4,4-tetrafluoro-3-(3,4,5-trichlorophenyl)but-1-en-1-yl)benzohydrazide]
mortality at 50 µg/cm2 [1]: 50 to 100%
mortality at 50 µg/cm2 [2]: 50 to 100%

NN(CC(=O)NCC(F)(F)F)C(=O)c1ccc(/C(F)=C/C(c2cc(Cl)c(Cl)c(Cl)c2)C(F)(F)F)cc1C(F)(F)F (stereo not shown) [F149, (Z)-2-(1-(4-(1,4,4,4-tetrafluoro-3-(3,4,5-trichlorophenyl)but-1-en-1-yl)-2-(trifluoromethyl)benzoyl)hydrazinyl)-N-(2,2,2-trifluoroethyl)acetamide]
mortality at 50 µg/cm2 [1]: 50 to 100%
mortality at 50 µg/cm2 [2]: 50 to 100%

O=C(NNc1ccc(F)cc1F)c1ccc(/C(F)=C/C(c2cc(Cl)c(Cl)c(Cl)c2)C(F)(F)F)cc1C(F)(F)F (stereo not shown) [F26, (Z)—N′-(2,4-Difluorophenyl)-4-(1,4,4,4-tetrafluoro-3-(3,4,5-trichlorophenyl)but-1-en-1-yl)-2-(trifluoromethyl)benzohydrazide]
mortality at 50 µg/cm2 [1]: 50 to 100%
mortality at 50 µg/cm2 [2]: 50 to 100%

CC(C)CNNC(=O)c1ccc(/C(F)=C/C(c2cc(Cl)c(Cl)c(Cl)c2)C(F)(F)F)cc1C(F)(F)F (stereo not shown) [F157, (Z)—N′-Isobutyl-4-(1,4,4,4-tetrafluoro-3-(3,4,5-trichlorophenyl)but-1-en-1-yl)-2-(trifluoromethyl)benzohydrazide]
mortality at 50 µg/cm2 [1]: 50 to 100%
mortality at 50 µg/cm2 [2]: 50 to 100%

CCc1cnc(N(C)NC(=O)c2ccc(/C(F)=C/C(c3cc(Cl)c(Cl)c(Cl)c3)C(F)(F)F)cc2C(F)(F)F)nc1 (stereo not shown) [F41, (Z)—N′-(5-Ethylpyrimidin-2-yl)-N′-methyl-4-(1,4,4,4-tetrafluoro-3-(3,4,5-trichlorophenyl)but-1-en-1-yl)-2-(trifluoromethyl)benzohydrazide]
mortality at 50 µg/cm2 [1]: 50 to 100%
mortality at 50 µg/cm2 [2]: 50 to 100%

CN(NC(=O)c1ccc(/C(F)=C/C(c2cc(Cl)c(Cl)c(Br)c2)C(F)(F)F)cc1C(F)(F)F)c1ncccn1 (stereo not shown) [F171, (Z)-4-(3-(3-Bromo-4,5-dichlorophenyl)-1,4,4,4-tetrafluorobut-1-en-1-yl)-N′-methyl-N′-(pyrimidin-2-yl)-2-(trifluoromethyl)benzohydrazide]
mortality at 50 µg/cm2 [1]: 50 to 100%
mortality at 50 µg/cm2 [2]: 50 to 100%

O=C(Nn1ccc2ccccc21)c1ccc(/C(F)=C/C(c2cc(Cl)c(Cl)c(Cl)c2)C(F)(F)F)cc1C(F)(F)F (stereo not shown) [F89, (Z)—N-(1H-Indol-1-yl)-4-(1,4,4,4-tetrafluoro-3-(3,4,5-trichlorophenyl)but-1-en-1-yl)-2-(trifluoromethyl)benzamide]
mortality at 50 µg/cm2 [1]: 50 to 100%
mortality at 50 µg/cm2 [2]: 50 to 100%

CN(NC(=O)c1ccc(/C(F)=C/C(c2cc(Cl)cc(C(F)(F)F)c2)C(F)(F)F)cc1C(F)(F)F)c1ncccn1 (stereo not shown) [F83, (Z)-4-(3-(3-Chloro-5-(trifluoromethyl)phenyl)-1,4,4,4-tetrafluorobut-1-en-1-yl)-N′-methyl-N′-(pyrimidin-2-yl)-2-(trifluoromethyl)benzohydrazide]
mortality at 50 µg/cm2 [1]: 50 to 100%
mortality at 50 µg/cm2 [2]: 50 to 100%

O=C(NNc1c(Cl)cc(C(F)(F)F)cc1Cl)c1ccc(/C(F)=C/C(c2cc(Cl)c(Cl)c(Cl)c2)C(F)(F)F)cc1C(F)(F)F (stereo not shown) [F87, (Z)—N′-(2,6-Dichloro-4-(trifluoromethyl)phenyl)-4-(1,4,4,4-tetrafluoro-3-(3,4,5-trichlorophenyl)but-1-en-1-yl)-2-(trifluoromethyl)benzohydrazide]
mortality at 50 µg/cm2 [1]: 0%
mortality at 50 µg/cm2 [2]: 0%

CC(C)N(NC(=O)c1ccc(/C(F)=C/C(c2cc(Cl)c(Cl)c(Cl)c2)C(F)(F)F)cc1C(F)(F)F)c1ncccn1 (stereo not shown) [F169, (Z)—N′-Isopropyl-N′-(pyrimidin-2-yl)-4-(1,4,4,4-tetrafluoro-3-(3,4,5-trichlorophenyl)but-1-en-1-yl)-2-(trifluoromethyl)benzohydrazide]
mortality at 50 µg/cm2 [1]: 50 to 100%
mortality at 50 µg/cm2 [2]: 50 to 100%

NN(C(=O)c1ccc(/C(F)=C/C(c2cc(Cl)c(Cl)c(Cl)c2)C(F)(F)F)cc1C(F)(F)F)C1CC1 (stereo not shown) [F112, (Z)—N-Cyclopropyl-4-(1,4,4,4-tetrafluoro-3-(3,4,5-trichlorophenyl)but-1-en-1-yl)-2-(trifluoromethyl)benzohydrazide]
mortality at 50 µg/cm2 [1]: 50 to 100%
mortality at 50 µg/cm2 [2]: 50 to 100%

CC(C)(C)NNC(=O)c1ccc(/C(F)=C/C(c2cc(Cl)c(Cl)c(Cl)c2)C(F)(F)F)cc1C(F)(F)F (stereo not shown) [F40, (Z)—N′-(tert-Butyl)-4-(1,4,4,4-tetrafluoro-3-(3,4,5-trichlorophenyl)but-1-en-1-yl)-2-(trifluoromethyl)benzohydrazide]
mortality at 50 µg/cm2 [1]: 50 to 100%
mortality at 50 µg/cm2 [2]: 50 to 100%

CN(CCCC(F)(F)F)NC(=O)c1ccc(/C(F)=C/C(c2cc(Cl)c(Cl)c(Cl)c2)C(F)(F)F)cc1C(F)(F)F (stereo not shown) [F155, (Z)—N′-Methyl-4-(1,4,4,4-tetrafluoro-3-(3,4,5-trichlorophenyl)but-1-en-1-yl)-N′-(4,4,4-trifluorobutyl)-2-(trifluoromethyl)benzohydrazide]
mortality at 50 µg/cm2 [1]: 50 to 100%
mortality at 50 µg/cm2 [2]: 50 to 100%

CN(NC(=O)c1ccc(/C(F)=C/C(c2cc(Cl)c(Cl)c(Cl)c2)C(F)(F)F)cc1C(F)(F)F)c1ncc([N+](=O)[O-])cn1 (stereo not shown) [F164, (Z)—N′-Methyl-N′-(5-nitropyrimidin-2-yl)-4-(1,4,4,4-tetrafluoro-3-(3,4,5-trichlorophenyl)but-1-en-1-yl)-2-(trifluoromethyl)benzohydrazide]
mortality at 50 µg/cm2 [1]: 50 to 100%
mortality at 50 µg/cm2 [2]: 50 to 100%

N#CCN(C(=O)c1ccc(/C(F)=C/C(c2cc(Cl)c(Cl)c(Cl)c2)C(F)(F)F)cc1C(F)(F)F)N(CC#N)c1ncccn1 (stereo not shown) [F187, (Z)—N,N′-bis(cyanomethyl)-N′-(pyrimidin-2-yl)-4-(1,4,4,4-tetrafluoro-3-(3,4,5-trichlorophenyl)but-1-en-1-yl)-2-(trifluoromethyl)benzohydrazide]
mortality at 50 µg/cm2 [1]: 50 to 100%
mortality at 50 µg/cm2 [2]: 50 to 100%

O=C(NNc1c(Cl)cnc(Cl)c1Cl)c1ccc(/C(F)=C/C(c2cc(Cl)c(Cl)c(Cl)c2)C(F)(F)F)cc1C(F)(F)F (stereo not shown) [F30, (Z)-4-(1,4,4,4-Tetrafluoro-3-(3,4,5-trichlorophenyl)but-1-en-1-yl)-N′-(2,3,5-trichloro-4-pyridin-4-yl)-2-(trifluoromethyl)benzohydrazide]
mortality at 50 µg/cm2 [1]: 50 to 100%
mortality at 50 µg/cm2 [2]: 50 to 100%

CC(C)CCN(C)NC(=O)c1ccc(/C(F)=C/C(c2cc(Cl)c(Cl)c(Cl)c2)C(F)(F)F)cc1C(F)(F)F (stereo not shown) [F160, (Z)—N′-Isopentyl-N′-methyl-4-(1,4,4,4-tetrafluoro-3-(3,4,5-trichlorophenyl)but-1-en-1-yl)-2-(trifluoromethyl)benzohydrazide]
mortality at 50 µg/cm2 [1]: 50 to 100%
mortality at 50 µg/cm2 [2]: 50 to 100%

O=C(NNc1ncccc1[N+](=O)[O-])c1ccc(/C(F)=C/C(c2cc(Cl)c(Cl)c(Cl)c2)C(F)(F)F)cc1C(F)(F)F (stereo not shown) [F132, (Z)—N′-(3-Nitropyridin-2-yl)-4-(1,4,4,4-tetrafluoro-3-(3,4,5-trichlorophenyl)but-1-en-1-yl)-2-(trifluoromethyl)benzohydrazide]
mortality at 50 µg/cm2 [1]: 50 to 100%
mortality at 50 µg/cm2 [2]: 50 to 100%

O=C(NNC1=NCCN1)c1ccc(/C(F)=C/C(c2cc(Cl)c(Cl)c(Cl)c2)C(F)(F)F)cc1C(F)(F)F (stereo not shown) [F116, (Z)—N′-(4,5-Dihydro-1H-imidazol-2-yl)-4-(1,4,4,4-tetrafluoro-3-(3,4,5-trichlorophenyl)but-1-en-1-yl)-2-(trifluoromethyl)benzohydrazide]
mortality at 50 µg/cm2 [1]: 50 to 100%
mortality at 50 µg/cm2 [2]: 50 to 100%

O=C(NNc1nc(Cl)nc(Cl)n1)c1ccc(/C(F)=C/C(c2cc(Cl)c(Cl)c(Cl)c2)C(F)(F)F)cc1C(F)(F)F (stereo not shown) [F13, (Z)—N′-(4,6-Dichloro-1,3,5-triazin-2-yl)-4-(1,4,4,4-tetrafluoro-3-(3,4,5-trichlorophenyl)but-1-en-1-yl)-2-(trifluoromethyl)benzohydrazide]
mortality at 50 µg/cm2 [1]: 50 to 100%
mortality at 50 µg/cm2 [2]: 50 to 100%

O=C(/N=N/c1ncccn1)c1ccc(/C(F)=C/C(c2cc(Cl)c(Cl)c(Cl)c2)C(F)(F)F)cc1C(F)(F)F (stereo not shown) [F192, ((E)-pyrimidin-2-yldiazenyl)(4-((Z)-1,4,4,4-tetrafluoro-3-(3,4,5-trichlorophenyl)but-1-en-1-yl)-2-(trifluoromethyl)phenyl)methanone]
mortality at 50 µg/cm2 [1]: 50 to 100%
mortality at 50 µg/cm2 [2]: 50 to 100%
